Among the test systems are A498; ACHN; HCC 2998; HOP-62; HT-29; K562; MDA-MB-231; MDA-MB-435; MDA-N; Malme-3M; NCI-H226; OVCAR-4; OVCAR-5; RPMI-8226; RXF 393; SK-MEL-28; SK-MEL-5; SW-620; UACC-62; SR.
Common to all, as to assay: growth of human tumour cells (NCI), 48 h

SMILES strings stand for the structures.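 Grown in 96-well plates, cells were treated for 48 hours with each compound at five concentrations. Insufficient inhibition: endpoint recorded as highest concentration tested. The concentration for 50% growth inhibition is given as GI50.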 Active and inactive are the calls of the source. No stated cut-off is given here; in the data, active = GI50 up to about 1.1 µM and inactive = higher. Where a SMILES comes first, the peptide text is derived from it. [ ]: non-standard residue; d: D form. Phe(4-NO2) = N[CH](Cc1ccc([N+](=O)[O-])cc1)C(=O)O

`COC(=O)C1=C(C(=O)OC)SC2(S1)C(C(=O)OC)=C(C(=O)OC)Sc1c2ssc1=O`: the GI50 is 1.64 µM (inactive) with A498; 0.927 µM (active) in the experiment with ACHN; 1.31 µM (inactive) with HCC 2998; 1.83 µM (inactive) with HOP-62; 0.585 µM (active) with HT-29; 0.547 µM (active) in the experiment on K562. Also, the GI50 with MDA-MB-231 is 1.67 µM (inactive); in the experiment on MDA-MB-435, 1.57 µM (inactive); in the experiment with MDA-N, 1.66 µM (inactive); in the experiment on Malme-3M, 0.61 µM (active); with NCI-H226, 1.48 µM (inactive); in the experiment with OVCAR-4, 1.22 µM (inactive). In addition, the GI50 was 2.11 µM (inactive) in the experiment with OVCAR-5; 0.982 µM (active) in the experiment with RPMI-8226; 1.08 µM (active) in the experiment with RXF 393; 1.46 µM (inactive) in the experiment on SK-MEL-28; 1.21 µM (inactive) with SK-MEL-5; 0.661 µM (active) with SW-620. For the same compound, the GI50 in the experiment with UACC-62 was 0.526 µM (active).
As to `CC(/C=N/N=C1NCCCN1)=N\N=C1NCCCN1`, the GI50 in the experiment with ACHN, with HCC 2998, with HOP-62, in the experiment on HT-29, with K562 and with MDA-MB-231 was > 100 µM (inactive) throughout. In addition, the GI50 in the experiment with MDA-MB-435, with MDA-N, with Malme-3M, with NCI-H226, with OVCAR-4 and in the experiment with OVCAR-5 was > 100 µM (inactive) in each case. For the same compound, the GI50 with RPMI-8226, in the experiment with RXF 393, in the experiment with SK-MEL-28, in the experiment on SK-MEL-5, in the experiment with SR and with SW-620 was > 100 µM (inactive) in each case. Also, the GI50 in the experiment on UACC-62 was > 100 µM (inactive).
For the compound `CN1C(=O)C(CCO)(C(C)(C)C)c2ccccc21` (configuration not stated), the GI50 in the experiment with ACHN, in the experiment with HCC 2998, in the experiment on HOP-62, with K562, with MDA-MB-231 and in the experiment on MDA-MB-435 was > 100 µM (inactive) in each case. In addition, the GI50 with MDA-N is > 100 µM (inactive); in the experiment with NCI-H226 it was 97.9 µM (inactive); in the experiment with OVCAR-4, > 100 µM (inactive); with OVCAR-5 it was > 100 µM (inactive); in the experiment with RPMI-8226 it was > 100 µM (inactive); with RXF 393, > 100 µM (inactive). Further, the GI50 in the experiment on SK-MEL-28, in the experiment on SK-MEL-5, in the experiment with SR, with SW-620 and in the experiment on UACC-62 was > 100 µM (inactive) throughout.
On to `COc1c(C(=O)/C(=N/Nc2ccc(C(=O)O)cc2)C(C)=O)c(O)cc2occc12`, for which the GI50 with ACHN, in the experiment on HCC 2998, in the experiment on HOP-62, in the experiment with HT-29, with K562 and in the experiment on MDA-MB-231 was > 100 µM (inactive) each time. Further, the GI50 in the experiment with MDA-MB-435 is 46.7 µM (inactive); with MDA-N, 35.7 µM (inactive); in the experiment with Malme-3M it was 90.8 µM (inactive); in the experiment on NCI-H226, > 100 µM (inactive); with OVCAR-5, > 100 µM (inactive); in the experiment on RPMI-8226, > 100 µM (inactive). For the same compound, the GI50 is 51.2 µM (inactive) in the experiment on RXF 393; > 100 µM (inactive) with SK-MEL-28; 28.8 µM (inactive) with SK-MEL-5; 68.9 µM (inactive) in the experiment with SR; > 100 µM (inactive) in the experiment on SW-620; > 100 µM (inactive) with UACC-62.
With `CCCCCCCCCC/C=C/CC(=O)SCCNC(=O)CCNC(=O)[C@@H](O)C(C)(C)COP(=O)(O)OP(=O)(O)OCC1OC(n2cnc3c(N)ncnc32)C(O)C1OP(=O)(O)O` (some centres not stated), the GI50 in the experiment on A498, in the experiment on ACHN, in the experiment on HCC 2998, in the experiment on HOP-62, in the experiment on HT-29 and in the experiment with K562 was > 10 µM (inactive) each time. The GI50 with MDA-MB-231, in the experiment with MDA-MB-435, in the experiment on MDA-N, in the experiment with Malme-3M, in the experiment on NCI-H226 and in the experiment with OVCAR-4 was > 10 µM (inactive) each time. In addition, the GI50 with OVCAR-5, in the experiment with RPMI-8226, in the experiment with RXF 393, with SK-MEL-28, in the experiment on SK-MEL-5 and in the experiment with SW-620 was > 10 µM (inactive) each time. Further, the GI50 in the experiment on UACC-62 is > 10 µM (inactive).
`Cc1cc2c(cc1N)C(C)C1(CCC(=O)N2Cc2ccccc2)OCCO1` (configuration not stated): the GI50 in the experiment with A498, in the experiment on ACHN, with HCC 2998, in the experiment on HOP-62, with HT-29 and in the experiment with MDA-MB-231 was > 100 µM (inactive) throughout. Also, the GI50 in the experiment with MDA-MB-435 is > 100 µM (inactive); in the experiment with MDA-N it was > 100 µM (inactive); with Malme-3M, 89.7 µM (inactive); with NCI-H226 it was > 100 µM (inactive); in the experiment with OVCAR-4 it was > 100 µM (inactive); with OVCAR-5, > 100 µM (inactive). The GI50 was 57.4 µM (inactive) in the experiment with RPMI-8226; > 100 µM (inactive) with SK-MEL-28; > 100 µM (inactive) in the experiment on SK-MEL-5; 39.2 µM (inactive) with SR; > 100 µM (inactive) in the experiment with SW-620; > 100 µM (inactive) in the experiment on UACC-62.
In the case of `O=C1c2ccccc2C(=O)N1C(=S)c1ccccc1`, the GI50 in the experiment with ACHN, in the experiment on HCC 2998, in the experiment on HOP-62, in the experiment with HT-29, with K562 and in the experiment with MDA-MB-231 was > 100 µM (inactive) each time. Further, the GI50 with MDA-MB-435, in the experiment on MDA-N, in the experiment on Malme-3M, with NCI-H226, with OVCAR-4 and in the experiment on OVCAR-5 was > 100 µM (inactive) in each case. Moreover, the GI50 in the experiment with RPMI-8226, in the experiment with RXF 393, in the experiment on SK-MEL-28, with SK-MEL-5, in the experiment with SR and with SW-620 was > 100 µM (inactive) in each case. Moreover, the GI50 in the experiment with UACC-62 is > 100 µM (inactive).
As for `CC[C@@H]1CSC(/C=C/C2OC3OC(C)(C)OC3C3OC(C)(C)OC23)=N1` (some centres not stated), the GI50 was 9.44 µM (inactive) in the experiment with ACHN; 3.03 µM (inactive) with HCC 2998; 22.9 µM (inactive) with HOP-62; 3.94 µM (inactive) with HT-29; 3.91 µM (inactive) with K562; 12.4 µM (inactive) in the experiment on MDA-MB-231. The GI50 with MDA-MB-435 was 4.15 µM (inactive); in the experiment on MDA-N it was 4.5 µM (inactive); with Malme-3M, 10.9 µM (inactive); in the experiment on NCI-H226, 16.4 µM (inactive); in the experiment on OVCAR-4, 4.39 µM (inactive); in the experiment with OVCAR-5, 7.91 µM (inactive). In addition, the GI50 in the experiment with RPMI-8226 was 5.78 µM (inactive); in the experiment with RXF 393, 3.4 µM (inactive); in the experiment on SK-MEL-28, 11.9 µM (inactive); with SK-MEL-5, 6.67 µM (inactive); with SR, 3.89 µM (inactive); in the experiment with SW-620, 3.22 µM (inactive). In addition, the GI50 with UACC-62 is 13.9 µM (inactive).
`CCOC(=O)Cc1cc(=O)[nH]c(-n2[nH]c(C)c(CCO)c2=O)n1`: the GI50 in the experiment on A498, with ACHN, with HCC 2998, in the experiment on HOP-62, in the experiment on HT-29 and with K562 was > 100 µM (inactive) throughout. The GI50 with MDA-MB-231, in the experiment on MDA-MB-435, in the experiment on MDA-N, in the experiment on Malme-3M, with NCI-H226 and in the experiment on OVCAR-4 was > 100 µM (inactive) throughout. Moreover, the GI50 in the experiment with OVCAR-5, with RPMI-8226, with RXF 393, in the experiment with SK-MEL-28, in the experiment on SK-MEL-5 and with SW-620 was > 100 µM (inactive) in each case. In the experiment with UACC-62, the GI50 is > 100 µM (inactive).
For `COC(=O)CCC(NC(=O)C(CCC(=O)OC)NC(=O)C(CCC(=O)OC)NC(=O)C(CCC(=O)OC)NC(=O)C(CCC(=O)OC)NC(=O)C(Cc1ccc([N+](=O)[O-])cc1)NC(=O)C(CCC(=O)OC)NC(=O)C(CCC(=O)OC)NC(=O)C(CCC(=O)OC)NC(=O)C(CCC(=O)OC)NC(=O)C(CCC(=O)OC)NC(C)=O)C(N)=O` (configuration not stated) (Ac-E(OMe)E(OMe)E(OMe)E(OMe)E(OMe)[Phe(4-NO2)]E(OMe)E(OMe)E(OMe)E(OMe)E(OMe)-NH2; configuration not given here), the GI50 with ACHN is > 100 µM (inactive); in the experiment with HT-29, > 100 µM (inactive); in the experiment with MDA-MB-231, 48.1 µM (inactive); in the experiment with MDA-MB-435, > 100 µM (inactive); with MDA-N it was > 100 µM (inactive); in the experiment on Malme-3M, > 100 µM (inactive). Further, the GI50 was > 100 µM (inactive) in the experiment with OVCAR-4; > 100 µM (inactive) with OVCAR-5; > 100 µM (inactive) in the experiment with RPMI-8226; > 100 µM (inactive) with RXF 393; > 100 µM (inactive) with SK-MEL-28; 26.1 µM (inactive) in the experiment on SK-MEL-5. In addition, the results for the GI50 in the experiment with SR, with SW-620 and with UACC-62 were > 100 µM (inactive), > 100 µM (inactive) and > 10 µM (inactive), respectively.

The values are drawn from ChEMBL document CHEMBL1201862, “PubChem BioAssay data set” (2004).
